Like-named read-outs stand apart in the source and are kept apart here.
Columns and labels:
[1] = target: T1, neuromedin U receptor 2 (NMUR2) (Homo sapiens, UniProt Q9GZQ4); assay: GloSensor cAMP inhibition (Gi mode) in hNMUR2 HEK293 cells; no effect in cells lacking NMUR2; FLIPR calcium EC50 […]; type: cell-based; conditions: read-out: Gi/o EC50
T1 construct: human NMUR2 stably expressed in HEK293 cells

[2] = target: T1, neuromedin U receptor 2 (NMUR2); assay: as above; type: cell-based; conditions: read-out: Gi/o EC50; remark: listed apart in the source

T1 sequence (Q9GZQ4 whole entry): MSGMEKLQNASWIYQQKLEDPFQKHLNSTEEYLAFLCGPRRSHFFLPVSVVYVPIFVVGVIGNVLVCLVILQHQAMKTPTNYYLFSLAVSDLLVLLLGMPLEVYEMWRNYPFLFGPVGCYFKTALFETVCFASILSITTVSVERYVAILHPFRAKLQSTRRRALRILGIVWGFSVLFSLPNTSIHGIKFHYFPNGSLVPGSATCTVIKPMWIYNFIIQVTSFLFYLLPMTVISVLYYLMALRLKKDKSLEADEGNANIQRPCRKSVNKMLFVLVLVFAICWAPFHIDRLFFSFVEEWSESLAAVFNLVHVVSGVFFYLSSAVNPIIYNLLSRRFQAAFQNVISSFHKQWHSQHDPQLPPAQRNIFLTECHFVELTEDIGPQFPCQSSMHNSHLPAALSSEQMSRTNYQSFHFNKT

| SMILES | EC50 [1] | EC50 [2] |
| --- | --- | --- |
| N=C(N)NCCCOC(c1ccccc1)(c1ccccc1)c1ccccc1 [NY0128] | 0.71 nM | – |
| N=C(N)NCCOC(c1ccccc1)(c1ccccc1)c1ccccc1 [NY0116] | – | 1.69 nM |

— publication PMC6106167, “Small‐Molecule Neuromedin U Receptor 2 Agonists Suppress Food Intake and Decrease Visceral Fat in Animal Models” (Pharmacology Research & Perspectives, 2018)
